We go through 13 molecules from patent US4931471A, “Amides of paramethoxycinnamic and utilization thereof as solar filters” (priority 1985, dated 1990).

Data set [1] concerns esterases in the skin and plasma. Conditions: loss of UV-B filtering power on the skin; cited from earlier work.
The nature of data set [2]: UV spectrum (absorption maximum). It is filed as physicochemical.
A short description of data set [3]: Degradation in rat skin homogenate (TLC after 12 h). The data set is classed as in vitro ADME. As to the method:
The hypodermis was carefully detached by means of a razor blade. The remaining epidermis and dermis were cut into thin lamellae and placed in a conical flask containing 20 ml of phosphate buffer of pH 8. The lamellae were then ground in a Potter mill with large teeth so as to prevent the proteases from being released from the cell nuclei. The preparation obtained was centrifuged at 25,000 rpm and the supernatant was removed. 10 μmol of the test product were suspended in 4 ml of the homogenate. After 12 h, the solutions were analyzed by TLC.
When using rat skin homogenates such as those described above, no degradation of the amides according to Examples I and III to XI was observed, whereas the amide of Example II undergoes 30% degradation.

The conditions of data set [4]: man; cited from earlier work.

`CCCCC(CC)COC(=O)C=Cc1ccc(OC)cc1` (stereo not drawn) [Ibis]: in data set [1], the “hydrolysis under the influence of the esterases in the skin and plasma” value is “hydrolyzes to p-methoxycinnamic acid”.
As to `COC(=O)[C@H](Cc1ccc(O)cc1)NC(=O)C=Cc1ccc(OC)cc1` [Example VII, Methyl ester of N-(4-methoxycinnamoyl)-L-tyrosine], the “UV spectrum: maximum” value in data set [2] (CHCl3) worked out at 312 nm.
With `COc1ccc(C=CC(=O)N2CCCCC2)cc1` [Example I, N-(4-Methoxycinnamoyl)piperidine], the “UV spectrum: maximum” value in data set [2] (CHCl3) is recorded as 295 nm.
Regarding `COC(=O)[C@H](CS)NC(=O)C=Cc1ccc(OC)cc1` [III, Methyl ester of N-(4-methoxycinnamoyl)-L-cysteine], the “UV spectrum: maximum” value in data set [2] (CHCl3) is recorded as 314 nm.
Consider `COC(=O)/C=C/c1cn(C(=O)C=Cc2ccc(OC)cc2)cn1` [XI, Amide of paramethoxycinnamic acid and the methyl ester of trans-urocanic acid], for which the “absorbing UV-A and UV-B radiation simultaneously” value in data set [2] (in words) was “capable of absorbing UV-A and UV-B radiation simultaneously”.
Take `O=C(C=Cc1c[nH]cn1)N1CCCCC1` [X, N-[3-(1H-Imidazol-4-yl)-1-oxoprop-2-enyl]piperidine]: the “UV spectrum: maximum” value in data set [2] (CHCl3) worked out at 285 nm.
Regarding `COC(=O)[C@H](CSSC[C@H](NC(=O)C=Cc1ccc(OC)cc1)C(=O)OC)NC(=O)C=Cc1ccc(OC)cc1` [IV, Dimethyl ester of N,N'-di(4-methoxycinnamoyl)-L-cystine], the “UV spectrum: maximum” value in data set [2] (CHCl3) stood at 309 nm.
For the molecule `COC(=O)C=Cc1cn(C(=O)C=Cc2ccc(OC)cc2)cn1` [Example VIII, Methyl ester of (4-methoxycinnamoyl)imidazol-4-ylprop-2-enoic acid (amide of paramethoxycinnamic acid and the methyl ester of urocanic acid)], the “UV spectrum: maximum” value in data set [2] (100° ethanol) amounted to 350 nm.
On to `COC(=O)[C@H](CSCc1ccccc1)NC(=O)C=Cc1ccc(OC)cc1` [Example VI, Methyl ester of S-benzyl-N-(4-methoxycinnamoyl)-L-cysteine], for which the “UV spectrum: maximum” value in data set [2] (CHCl3) is recorded as 310 nm.
For “Amide of paramethoxycinnamic acid and the methyl ester of oxidized qlutathione [IX]”, the “UV spectrum: maximum” value in data set [2] (CHCl3) turned out to be 309 nm.
`COC(=O)[C@H](CCSC)NC(=O)C=Cc1ccc(OC)cc1` [Example II, Methyl ester of N-(4-methoxycinnamoyl)-L-methionine]: the “UV spectrum: maximum” value in data set [2] (CHCl3) worked out at 309 nm. Besides, the “degradation (in words)” value in data set [3] was “slightly degraded”. This molecule displayed a metabolised at 12 h in data set [3] (pH 8) of 30%.
As to `O=C(O)/C=C/c1c[nH]cn1` [urocanic acid], in data set [4], the “passage into the blood” value was “passage into human blood”.
Take `COC(=O)[C@H](CSC)NC(=O)C=Cc1ccc(OC)cc1` [Example V, Methyl ester of S-methyl-N-(4-methoxycinnamoyl)-L-cysteine]: the “UV spectrum: maximum” value in data set [2] (CHCl3) was found to be 306 nm.
